Test results from patent US20180098969A1, “HODGKIN LYMPHOMA THERAPY” (Purdue Pharmaceutical Products L.P., priority 2016, published 2018).

Tests used:
L428 cells = assay: Orbital tumour mass at injection site in xenografted mice; format: in vivo, NSG mice; conditions: after injection
Protocol: Two independent experiments were performed to investigate the dose-effect of EDO-S101 in NSG mice eight weeks after xenografting with L428 cells as in Example 8. The aim of the protocol shown in FIG. 8B was to evaluate the effect of sequential treatment with a moderate dose of 60 mg/kg given at an interval of three weeks.
Some mice developed an orbital tumour mass at the site of the injection. […] In one mouse only that was treated with two doses of 60 mg/kg of EDO-S101, a regression of the orbital tumour was initially observed followed by re-establishment of the orbital mass 3 weeks later. However, this was the only instance observed of re-establishment of the orbital mass after treatment with EDO-S101 at either concentration.

L428s = assay: Clonogenic survival in methylcellulose; format: cell-based, human; conditions: very low doses 0.1 and 0.5 μmol
Protocol: (§1) In all examples, the human Hodgkin lymphoma-derived cell lines L428, L428-c, KMH2, L591, L540, L1236, HDLM2 and SUP-HD were obtained from Dr Steffen Junker (Aarhus University Denmark). All cell lines were cultured in Gibco RPMI 1640 medium supplemented with Glutamax, 10% FBS and antibiotics at 37° C. […] The immunophenotype, P53 status and MSI characterization of the Hodgkin lymphoma cell lines was determined using anti-CD30, CD15, CD20 and CD14 antibodies.
(§2) This test was performed on four Hodgkin lymphoma cell lines (L428, L428s, KMH2 and L540). Each was cultured with EDO-S101 at doses of 0, 0.1, 0.5, 1, 10 and 20 μmol in DMSO. The cell lines were cultured in methylcellulose (Stem cell Technologies) at a concentration of 10^5/ml at 37° C. and 5% CO2. The surviving fraction was determined by measuring the viability of colonies generated before and after exposure. Only colonies with more than 50 cells were counted. Each data point represents the average and SD from three independent experiments performed in triplicate.

L428 = assay: Clonogenic survival in methylcellulose; format: cell-based, human; conditions: very low doses 0.1 and 0.5 μmol
Protocol: as §1, §2

KMH2 cell line = assay: Clonogenic survival in methylcellulose; format: cell-based, human; conditions: lowest doses 0.1 and 0.5 μmol
Protocol: as §1, §2

In the case of `Cn1c(CCCCCCC(=O)NO)nc2cc(N(CCCl)CCCl)ccc21` [EDO-S101], the orbital tumour mass (L428 cells) is reported as “signification regression”, the clones observed (L428s) is reported as “only macrophagic clones being observed” and the clones observed (L428) is reported as “only macrophagic clones being observed”. For the same compound, the clones observed (KMH2 cell line) was “only a few clones”.
